Measured values from patent EP0429304A2, “Pyridone-carboxylic acid derivatives and their use as veterinary medicines” (SHIONOGI SEIYAKU KABUSHIKI KAISHA trading under the name of …, priority 1989, dated 1991).
Where a name gives a salt, the structure may show the parent alone. Read-outs that look alike come from different tables or passages of the source.

Assays:
[1] = system: TS-resistant strain of MG; assay type: in vivo, chicken; settings: for Infectious index Left air sack + / Infectious index Left air sack ++ / Infectious index Left air sack +++ / Infectious index Left air sack - / Infectious index Right air sack + / Infectious index Right air sack ++ / Infectious index Right air sack +++ / Infectious index Right air sack -: count of fowl; for Number of infected fowl/Number of fowl tested: 3.5 x 10³ CFU/fowl
[2] = system: Mycoplasma gallisepticum (MG) S6; experiment: In vitro sensitivity test (liquid dilution method); assay type: cell-based; settings: 37°C, 7 days
Protocol: (§1) Survey of the sensitivity of the compound (I) to various strains of microorganisms was performed by a liquid dilution method […] an agar dilution method, in which the bacteria used were of animal origin and included the following strains (15 strains out of 11 bacteria): Chicken-origin strain: Mycoplasma gallisepticum (MG), Mycoplasma synoviae (MS), Hemophilus paragallinarum (H.pg) and Escherichia coli (E.coli); Pig-origin strain: Mycoplasma hyopneumoniae (Mh), Hemophilus pleuropneumonia (H.pp) and Bordetella bronchiseptica (B.br); Fish-origin strain: Pasteurella piscicida (P.pis) and Streptococcus sp (Str.sp); others: Escherichia coli (E. coli), Salmonella typhimurium (S.typhi) and Staphylococcus aureus (S.au).
(§2) Of these bacteria, the strains belonging to MG, MS and Mh were cultured at 37°C for 7 days by a liquid dilution method, of which the culture medium comprised: 12 % horse-serum added "PPLO" (agar manufactured by Difco) medium for MG; 12 % pig-serum, 0.01 % βNAD (nicotinamide adenine dinucleotide) added Frey medium for MS; 0.5 % lactoalbumin added Hank's solution, 10 % horse-serum, 0.5 % yeast extract (25 %) for Mh, and the agar dilution method was applied to the strains belonging to H.pg, H.pp, S.typhi, E.coli, S.au and B.br. Specifically, the H.pg strain was cultured in a 5 % chicken-serum added chicken bouillon medium and the H.pp strain was cultured in a heart infusion agar added with 10 % sheep defibered blood and 0.05 % βNAD. In case of the H.pg and P.pp strains, observation was made after cultivation at 37°C for 20 hours under 10 % CO₂. Mueller Hinton agar (Difco) was used for the strains belonging to S.typhi, E.coli, S.au and B.br, and observation was made after cultivation at 37°C for 20 to 24 hours. P.pis and Str.sp, both being of fish-origin, were respectively cultured at 25°C for 40 to 48 hours in a 1.5 % NaCl added heart infusion agar and in a sensitive disk medium.

[3] = system: Mycoplasma synoviae (MS) F10-2as; experiment: In vitro sensitivity test (liquid dilution method); assay type: cell-based; settings: 37°C, 7 days
Protocol: as §1, §2

[4] = system: Mycoplasma synoviae (MS) 1853; experiment: In vitro sensitivity test (liquid dilution method); assay type: cell-based; settings: 37°C, 7 days
Protocol: as §1, §2

[5] = system: Mycoplasma gallisepticum (MG) T-7-T, TS-resistant strain isolated from the field; experiment: In vitro sensitivity test (liquid dilution method); assay type: cell-based; settings: 37°C, 7 days
Protocol: as §1, §2

[6] = system: Escherichia coli (E.coli) JC-2; experiment: In vitro sensitivity test (agar dilution method); assay type: cell-based; settings: 37°C, 20 to 24 hours
Protocol: as §1, §2

[7] = system: Salmonella typhimurium (S.typhi) 13311; experiment: In vitro sensitivity test (agar dilution method); assay type: cell-based; settings: 37°C, 20 to 24 hours
Protocol: as §1, §2

[8] = system: Staphylococcus aureus (S.au) 209P; experiment: In vitro sensitivity test (agar dilution method); assay type: cell-based; settings: 37°C, 20 to 24 hours
Protocol: as §1, §2

[9] = system: Hemophilus pleuropneumonia (H.pp) M-1; experiment: In vitro sensitivity test (agar dilution method); assay type: cell-based; settings: 37°C, 20 hours, 10 % CO₂
Protocol: as §1, §2

[10] = system: Pasteurella piscicida (P.pis) No. 2; experiment: In vitro sensitivity test; assay type: cell-based; settings: 25°C, 40 to 48 hours
Protocol: as §1, §2

[11] = system: Streptococcus sp (Str.sp) SNO6119; experiment: In vitro sensitivity test; assay type: cell-based; settings: 25°C, 40 to 48 hours
Protocol: as §1, §2

[12] = system: TS-resistant MG; experiment: Experimental MG infection to chicken, through bait; assay type: in vivo; settings: 9-days chicken; for Number of infected fowl/Number of fowl tested: 6.6 x 10³ CFU/fowl, dissection 6th day after inoculation
[13] = system: Mycoplasma hyopneumoniae (Mh) ST-11; experiment: In vitro sensitivity test (liquid dilution method); assay type: cell-based; settings: 37°C, 7 days
Protocol: as §1, §2

[14] = system: H.pp (otherwise called Actinobacillus pleuropneumoniae) strain M-1; experiment: Experimental H.pp infection to pig, through injection; assay type: in vivo; settings: injection to thigh muscle one time, Dose 5 mg/kg; dissection 6 days after inoculation
Protocol: In these experiments, the compound (I) was applied to the designated animals by (1) oral administration, (2) incorporation into baits and (3) intramuscular injection, the details of which are explained below.
(3) Preparation of the MG infected fowls was performed in the same manner as in (1) above. Infection of H.pp (otherwise called Actinobacillus pleuropneumoniae) to cause pleuropneumonia in pig was performed by inoculating 5 ml of a fresh cultured strain (i.e. M-1) of H.pp to each nasopharyngeal of some 45 days pigs, each weighing 4 to 9 kg (4 to 5 pigs/group), followed by injection of the test compounds to each thigh muscle at a designated volume one time. Pigs were dissected 6 days after the inoculation. The evaluation of the antimicrobial activity was made by observation of the pneumonia symptomes in air sacs, number of dead body and degree of nodosity in air sacks on dissection.

[15] = oral 100 mg/kg, 9-days chicken, 1.7 x 10³ CFU/fowl
[16] = oral 100 mg/kg, 9-days chicken, 2.2 x 10³ CFU/fowl
[17] = oral 100 mg/kg, 10-days chicken, 1.2 x 10³ CFU/fowl
[18] = oral 100 mg/kg, 10-days chicken, 3.0 x 10³ CFU/fowl
[19] = oral 200 mg/kg, 9-days chicken, 1.7 x 10³ CFU/fowl
[20] = oral 200 mg/kg, 9-days chicken, 2.2 x 10³ CFU/fowl
[21] = oral 200 mg/kg, 10-days chicken, 1.2 x 10³ CFU/fowl
[22] = oral 200 mg/kg, 10-days chicken, 3.0 x 10³ CFU/fowl
[23] = count of fowl, bait 880 ppm/Day, 1.8 x 10³ CFU/fowl

## C[C@H]1c2cccc(O)c2C(=O)C2=C(O)[C@]3(O)C(=O)C(C(N)=O)=C(O)[C@@H](N(C)C)[C@@H]3[C@@H](O)[C@@H]21 [DOXY, doxycycline, reference compound]
[1]; [15]
  Infectious index Left air sack +: 0
  Infectious index Left air sack ++: 0
  Infectious index Left air sack +++: 0
  Infectious index Left air sack -: 5
  Infectious index Right air sack +: 0
  Infectious index Right air sack ++: 1
  Infectious index Right air sack +++: 0
  Infectious index Right air sack -: 4
  Number of fowl having air sack lesions: 1
[1]; [16]
  Infectious index Left air sack +: 0
  Infectious index Left air sack ++: 0
  Infectious index Left air sack +++: 0
  Infectious index Left air sack -: 5
  Infectious index Right air sack +: 0
  Infectious index Right air sack ++: 1
  Infectious index Right air sack +++: 0
  Infectious index Right air sack -: 4
  Number of fowl having air sack lesions: 1
[1]; [17]
  Infectious index Left air sack +: 0
  Infectious index Left air sack ++: 0
  Infectious index Left air sack +++: 0
  Infectious index Left air sack -: 5
  Infectious index Right air sack +: 0
  Infectious index Right air sack ++: 1
  Infectious index Right air sack +++: 0
  Infectious index Right air sack -: 4
  Number of fowl having air sack lesions: 1
[1]; [18]
  Infectious index Left air sack +: 0
  Infectious index Left air sack ++: 0
  Infectious index Left air sack +++: 0
  Infectious index Left air sack -: 5
  Infectious index Right air sack +: 0
  Infectious index Right air sack ++: 1
  Infectious index Right air sack +++: 0
  Infectious index Right air sack -: 4
  Number of fowl having air sack lesions: 1
[1]; [19]
  Infectious index Left air sack +: 1
  Infectious index Left air sack ++: 0
  Infectious index Left air sack +++: 0
  Infectious index Left air sack -: 4
  Infectious index Right air sack +: 0
  Infectious index Right air sack ++: 1
  Infectious index Right air sack +++: 0
  Infectious index Right air sack -: 4
  Number of fowl having air sack lesions: 1
[1]; [20]
  Infectious index Left air sack +: 1
  Infectious index Left air sack ++: 0
  Infectious index Left air sack +++: 0
  Infectious index Left air sack -: 4
  Infectious index Right air sack +: 0
  Infectious index Right air sack ++: 1
  Infectious index Right air sack +++: 0
  Infectious index Right air sack -: 4
  Number of fowl having air sack lesions: 1
[1]; [21]
  Infectious index Left air sack +: 1
  Infectious index Left air sack ++: 0
  Infectious index Left air sack +++: 0
  Infectious index Left air sack -: 4
  Infectious index Right air sack +: 0
  Infectious index Right air sack ++: 1
  Infectious index Right air sack +++: 0
  Infectious index Right air sack -: 4
  Number of fowl having air sack lesions: 1
[1]; [22]
  Infectious index Left air sack +: 1
  Infectious index Left air sack ++: 0
  Infectious index Left air sack +++: 0
  Infectious index Left air sack -: 4
  Infectious index Right air sack +: 0
  Infectious index Right air sack ++: 1
  Infectious index Right air sack +++: 0
  Infectious index Right air sack -: 4
  Number of fowl having air sack lesions: 5
[2]
  In vitro Sensitivity Test MG S6: 0.2 µg/mL
[3]
  In vitro Sensitivity Test MS F10-2as: 0.39 µg/ml
[4]
  In vitro Sensitivity Test MS 1853: 0.1 µg/mL
[5]
  In vitro Sensitivity Test MG T-7-T: 0.2 µg/mL
[6]
  In vitro Sensitivity Test E.coli JC-2: 0.39 µg/mL
[7]
  In vitro Sensitivity Test S.typhi 13311: 0.1 µg/mL
[8]
  In vitro Sensitivity Test S.au 209P: 0.1 µg/mL
[9]
  In vitro Sensitivity Test H.pp M-1: 0.39 µg/mL

## CCNCC12CCCC1CN(c1c(F)cc3c(=O)c(C(=O)O)cn(CC)c3c1F)C2.Cl (stereo not shown) [I-23]
[10]
  In vitro Sensitivity Test P.pis No. 2: 0.78 µg/mL
[11]
  In vitro Sensitivity Test Str.sp SNO6119: 0.39 µg/mL
[12]; bait 31.3 ppm/Day
  Number of infected fowl/Number of fowl tested: 5/7
[12]; bait 62.5 ppm/Day
  Number of infected fowl/Number of fowl tested: 0/7
[12]; bait 125 ppm/Day
  Number of infected fowl/Number of fowl tested: 0/7
[1]; oral 1.56 mg/kg, 9-days chicken
  Number of infected fowl/Number of fowl tested: 5/5
[1]; oral 3.13 mg/kg, 9-days chicken
  Number of infected fowl/Number of fowl tested: 5/5
[1]; oral 6.25 mg/kg, 9-days chicken
  Number of infected fowl/Number of fowl tested: 0/5
[2]
  In vitro Sensitivity Test MG S6: 0.0125 µg/mL
[13]
  In vitro Sensitivity Test Mh ST-11: 0.78 µg/mL
[6]
  In vitro Sensitivity Test E.coli JC-2: 0.78 µg/mL
[7]
  In vitro Sensitivity Test S.typhi 13311: 1.56 µg/mL
[8]
  In vitro Sensitivity Test S.au 209P: 0.1 µg/mL
[9]
  In vitro Sensitivity Test H.pp M-1: 0.78 µg/mL
[14]
  Number of pig having nodi/Number of pig tested: 2/4

## CN(C)[C@@H]1C(O)=C(C(N)=O)C(=O)[C@@]2(O)C(O)=C3C(=O)c4c(O)ccc(Cl)c4[C@@](C)(O)[C@H]3C[C@@H]12 [CTC, chlorotetracycline hydrochloride, reference compound]
[12]; bait 880 ppm/Day, 1.8 x 10³ CFU/fowl
  Number of fowl having air sack lesions: 4
[12]; [23]
  Infectious index Left air sack +: 0
  Infectious index Left air sack ++: 0
  Infectious index Left air sack +++: 0
  Infectious index Left air sack -: 5
  Infectious index Right air sack +: 3
  Infectious index Right air sack ++: 1
  Infectious index Right air sack +++: 0
  Infectious index Right air sack -: 1
[2]
  In vitro Sensitivity Test MG S6: 12.5 µg/mL
[3]
  In vitro Sensitivity Test MS F10-2as: 0.39 µg/ml
[13]
  In vitro Sensitivity Test Mh ST-11: 1.56 µg/mL
[4]
  In vitro Sensitivity Test MS 1853: 0.05 µg/mL
[5]
  In vitro Sensitivity Test MG T-7-T: 6.25 µg/mL
[6]
  In vitro Sensitivity Test E.coli JC-2: 0.39 µg/mL
[7]
  In vitro Sensitivity Test S.typhi 13311: 0.1 µg/mL
[8]
  In vitro Sensitivity Test S.au 209P: 0.1 µg/mL
